Data from US9072293B2, “Cyclopropenes and method for applying cyclopropenes to agricultural products or crops” (Erum Biotechnologies Inc., priority 2010, dated 2015).
Where “and” joins values, the source holds several entries; their conditions need not be identical. Identical values can stand only once.

What was measured:
[1] = Relative chemical stability of cyclopropenes measured by 1H-NMR; format: physicochemical; conditions: for Stability (relative chemical stability, based on cyclopropenes having a chain length of 1): 1H-NMR, CDCl3, stored at −20° C. or room temperature, relative to chain length 1
Text: A variety of analysis methods can be used to analyze the derivatives of Formula 6, since the absorbance of cyclopropenes containing an aryl group can be easily measured in the UV range. It can be confirmed that the chemical stability of the derivatives increases, when the length of chains to link an aryl ring to a cyclopropene ring is 2 or more. […] It is supposed that the stability of cyclopropenes increase due to the fact that π electrons of aryl groups affect π electrons of cyclopropenes.
The following Table 1 summarizes the relative chemical stability of cyclopropenes having a chain length of 2, 3, 4 or 5, based on the chemical stability of cyclopropenes having a chain length of 1. In the case of cyclopropene having a chain length of 1, the structure thereof can be confirmed via ^1H-NMR within one hour following synthesis (degraded to a level of 50% or more within one hour at 30° C.). In the case of cyclopropene having a chain length of zero, synthesis thereof was attempted in accordance with the present invention, but was impossible by a conventional method. Meanwhile, in the case of cyclopropenes having a chain length of 2 or more, the structure thereof can be precisely confirmed by ^1H-NMR as well as ^13C-NMR. The stability of these cyclopropenes was measured by ^1H-NMR while NMR cells (CDCl3) were stored at −20° C. or room temperature. In particular, cyclopropenes having chains of 3 or more were so stable that their half-life reached 5 days or longer at −20° C. or lower. In ^1H-NMR analysis, the stability was evaluated by comparing integral values at 4 to 6.5 ppm (1H) and 0.8 to 0.9 ppm (2H), characteristic peaks of 1-alkylcyclopropenes, using a small amount of 1,1,3,3-tetramethylurea (2.80 ppm) as an internal standard. Furthermore, the stability was also qualitatively evaluated by comparing integral value of the peak newly generated adjacent to the peak of the olefin proton of cyclopropene ring, as a 1-alkylcyclopropene compound is decomposed.

[2] = tested on: tomato; experiment: Experimental Example 1: Efficacy test on tomato using emulsion (reddening grade); format: in vivo; parameters: key: an area in which the surface of tomato was colored in pink was 10% or less; an area in which the surface of tomato was completely colored in red was 10 to 40%; 2: an area in which the surface of tomato was completely colored in red was 40 to 70%; 3: an area in which the surface of tomato was completely colored in red was 70% or more and the bottom area remained green; 4: an area in which the surface of tomato was most colored in red and only a part of (0 to 10%) the bottom area remained green; 5: the surface of tomato did not entirely color in green; conditions: individual tomatoes n=4
Experimental: In situ, a 1.0 mM 1-octylcyclopropene formulation was prepared using (trans)-1-octyl-1-(methanesulfonyloxy)-2-(trimethylsilyl)cyclopropane of Preparation Example 10 in the same manner as in Example 7. This solution was diluted to 1 to 100 times prior to use, as necessary. Experimental Example 1: Efficacy test on tomato using emulsion 1.0 mM formulations of five agents such as 1-(2-phenylethyl)cyclopropene, 1-(3-phenylpropyl)cyclopropene, 1-(4-phenylbutyl)cyclopropene, 1-(5-phenylpentyl)cyclopropene and 1-hexylcyclopropene were prepared in the same manner as in Example 1, and 1.0 mM and 100 μM solutions were prepared therefrom. Then, the effects of the solutions were compared with non-treated groups and control groups in which a surfactant or a stabilizing agent (sodium dodecylbenzenesulfonate or tristyrenylphenykethoxy)12ethanol) is dissolved.
Tomatoes whose top end began to turn pink were screened, harvested and divided into 12 groups (n=4) in total, i.e., non-treated groups, control groups (surfactant) and agent groups with different concentrations such as 100 μM and 1.0 mM. Tomatoes were treated with the prepared agent formulation using a household sprayer such that the surface thereof was saturated. The tomatoes were stood at room temperature (25-30° C.) for 3 days and a reddening level thereof was evaluated based on grades of 0 to 5.
(§1) At this time, the tops of tomatoes most early turned red, while the bottoms thereof most lately turned red. For this reason, in order to accurately evaluate the difference in reddening, the coloring evaluated was based on the area of red color, rather than the color of tomatoes. […] Accordingly, the grade level is proportional to the rate at which the tomatoes ripened.

[3] = tested on: tomato; experiment: Experimental Example 2: Efficacy test on tomato using oil based formulation (reddening grade); format: in vivo; parameters: key: an area in which the surface of tomato was colored in pink was 10% or less; an area in which the surface of tomato was completely colored in red was 10 to 40%; 2: an area in which the surface of tomato was completely colored in red was 40 to 70%; 3: an area in which the surface of tomato was completely colored in red was 70% or more and the bottom area remained green; 4: an area in which the surface of tomato was most colored in red and only a part of (0 to 10%) the bottom area remained green; 5: the surface of tomato did not entirely color in green; conditions: 1.0 mM oil-based formulation, individual tomatoes n=4
Text: as §1
As illustrated in Example 1, in situ, in accordance with the methods of Preparation Examples 15, 16, 17, 18 and 22, five agents (1.0 mmol) such as 1-(2-phenylethyl)cyclopropene, 1-(3-phenylpropyl)cyclopropene, 1-(4-phenylbutyl)cyclopropene, 1-(5-phenylpentyl)cyclopropene and 1-hexylcyclopropene were prepared, 5.0 ml of xylene and 5.0 ml of water were added to the reaction solution, vigorously stirred for 5 minutes and stood. When the mixture was separated into an organic layer (upper layer) and an aqueous layer (lower layer), only the organic layer was collected and the aqueous layer was discarded. […] of hexane was added to the organic layer and homogeneously mixed to prepare a 1.0 mM oil-based formulation.
The tomatoes were screened in the same manner as in Experimental Example 1 and divided into 7 groups (n=4) including a non-treated group, a control group (solvent-treated group) and 5 agent groups. Tomatoes were treated with the previously prepared agent using a household sprayer such that the surface thereof was saturated. The tomatoes were stood at room temperature (25-30° C.) for 3 days and a reddening level thereof was evaluated based on grades of 0 to 5.

Row | SMILES | chemical stability (in words) [1] | Stability (relative chemical stability, based on cyclopropenes having a chain length of 1) [1] | reddening level (grade 0 to 5) ([2]; 100 μM, Day 0, room temperature (25-30° C.)) | reddening level (grade 0 to 5) ([2]; 100 μM, Day 1, room temperature (25-30° C.)) | reddening level (grade 0 to 5) ([2]; 100 μM, Day 2, room temperature (25-30° C.)) | reddening level (grade 0 to 5) ([2]; 100 μM, Day 3, room temperature (25-30° C.)) | reddening level (grade 0 to 5) ([2]; 1.0 mM, Day 0, room temperature (25-30° C.)) | reddening level (grade 0 to 5) ([2]; 1.0 mM, Day 1, room temperature (25-30° C.)) | reddening level (grade 0 to 5) ([2]; 1.0 mM, Day 2, room temperature (25-30° C.)) | reddening level (grade 0 to 5) ([2]; 1.0 mM, Day 3, room temperature (25-30° C.)) | Tomato results: reddening level (grade 0 to 5) ([3]; Day 0, room temperature (25-30° C.)) | Tomato results: reddening level (grade 0 to 5) ([3]; Day 1, room temperature (25-30° C.)) | Tomato results: reddening level (grade 0 to 5) ([3]; Day 2, room temperature (25-30° C.)) | Tomato results: reddening level (grade 0 to 5) ([3]; Day 3, room temperature (25-30° C.))
1 | C1=C(Cc2ccccc2)C1 [1-benzylcyclopropene] | considerably unstable | 1 | – | – | – | – | – | – | – | – | – | – | – | –
2 | COc1ccc(CC2=CC2)cc1 [A=—, Z=4-OCH, 1-(4-methoxybenzyl)cyclopropene] | – | ~1 | – | – | – | – | – | – | – | – | – | – | – | –
3 | CCCCCCC1=CC1 [(Hexyl), 1-hexylcyclopropene, reference compound] | – | – | 0 (an area in which the surface of tomato was colored in pink was 10% or less) (2×) and 1 (an area in which the surface of tomato was completely colored in red was 10 to 40%) and 2 (an area in which the surface of tomato was completely colored in red was 40 to 70%) | 1 (an area in which the surface of tomato was completely colored in red was 10 to 40%) (2×) and 3 (an area in which the surface of tomato was completely colored in red was 70% or more and the bottom area remained green) and 4 | 3 (an area in which the surface of tomato was completely colored in red was 70% or more and the bottom area remained green) (2×) and 4 and 5 | 4 and 5 (3×) | 0 (an area in which the surface of tomato was colored in pink was 10% or less) (2×) and 1 (an area in which the surface of tomato was completely colored in red was 10 to 40%) and 2 (an area in which the surface of tomato was completely colored in red was 40 to 70%) | 1 (an area in which the surface of tomato was completely colored in red was 10 to 40%) (2×) and 2 (an area in which the surface of tomato was completely colored in red was 40 to 70%) and 3 (an area in which the surface of tomato was completely colored in red was 70% or more and the bottom area remained green) | 2 (an area in which the surface of tomato was completely colored in red was 40 to 70%) (2×) and 3 (an area in which the surface of tomato was completely colored in red was 70% or more and the bottom area remained green) and 4 | 3 (an area in which the surface of tomato was completely colored in red was 70% or more and the bottom area remained green) (2×) and 5 (2×) | 0 (an area in which the surface of tomato was colored in pink was 10% or less) (2×) and 1 (an area in which the surface of tomato was completely colored in red was 10 to 40%) and 2 (an area in which the surface of tomato was completely colored in red was 40 to 70%) | 1 (an area in which the surface of tomato was completely colored in red was 10 to 40%) (2×) and 2 (an area in which the surface of tomato was completely colored in red was 40 to 70%) and 3 (an area in which the surface of tomato was completely colored in red was 70% or more and the bottom area remained green) | 3 (an area in which the surface of tomato was completely colored in red was 70% or more and the bottom area remained green) and 2 (an area in which the surface of tomato was completely colored in red was 40 to 70%) and 4 and 5 | 4 (2×) and 5 (2×)
